This is an account of results in ChEMBL document CHEMBL6071165, “Design, synthesis and biological evaluation of plant-derived miliusol derivatives achieve TNBC profound regression in vivo” (Eur J Med Chem, 2024).

The source made the active and inactive calls. The calls are words filed in the database; no cut-off is given here.

A short description of data set [1]: Antiproliferative activity against human MCF-10A cells assessed as inhibition of cell proliferation incubated for 48 hrs by MTT assay. It counts as toxicity, cell-based.
The subject of data set [2] is MDA-MB-231. Nature of the data set: Induction of apoptosis in human MDA-MB-231 cells assessed as necrotic cells at 0.5 uM incubated for 24 hrs by Annexin V-PI staining based flow cytometric analysis (reference value: 1.29%). It counts as functional.
Data set [3] concerns MDA-MB-231. Nature of the data set: Induction of apoptosis in human MDA-MB-231 cells assessed as upregulation of cleavage of caspase-8 expression at 0.5 to 2 uM incubated for 24 hrs by Western blot analysis. Format: functional, cell-based. Particulars: dose 0.5-2 µM.
The subject of data set [4] is BT-549. Nature of the data set: Induction of apoptosis in human BT-549 cells assessed as late apoptotic cells at 2 uM incubated for 24 hrs by Annexin V-PI staining based flow cytometric analysis (reference value: 2.95%). Format: functional.
The test system of data set [5] is Mitochondrial membrane. Nature of the data set: Disruption of mitochondrial potential loss in human MDA-MB-231 cells assessed as decrease in JC-1 aggregates at 1 uM incubated for 24 hrs by JC-1 staining based flow cytometric analysis (Rvb =98.1%). Further details: scale not given: the % may be the effect or the level left. Format: cell membranes.
In data set [6] the test system is MDA-MB-231. Nature of the data set: Inhibition of tumor sphere formation in human MDA-MB-231 cells at 1 uM incubated for 24 hrs by microscopic analysis. Format: functional, cell-based.
The target of data set [7] is Eukaryotic translation initiation factor 3 subunit D (Homo sapiens) (UniProt O15371). Nature of the data set: Induction of thermal stabilization of EIF3D in human MDA-MB-231 cells at 1 uM by CETSA analysis. It counts as cell-based.
Sequence of Eukaryotic translation initiation factor 3 subunit D (Homo sapiens) (O15371 whole entry): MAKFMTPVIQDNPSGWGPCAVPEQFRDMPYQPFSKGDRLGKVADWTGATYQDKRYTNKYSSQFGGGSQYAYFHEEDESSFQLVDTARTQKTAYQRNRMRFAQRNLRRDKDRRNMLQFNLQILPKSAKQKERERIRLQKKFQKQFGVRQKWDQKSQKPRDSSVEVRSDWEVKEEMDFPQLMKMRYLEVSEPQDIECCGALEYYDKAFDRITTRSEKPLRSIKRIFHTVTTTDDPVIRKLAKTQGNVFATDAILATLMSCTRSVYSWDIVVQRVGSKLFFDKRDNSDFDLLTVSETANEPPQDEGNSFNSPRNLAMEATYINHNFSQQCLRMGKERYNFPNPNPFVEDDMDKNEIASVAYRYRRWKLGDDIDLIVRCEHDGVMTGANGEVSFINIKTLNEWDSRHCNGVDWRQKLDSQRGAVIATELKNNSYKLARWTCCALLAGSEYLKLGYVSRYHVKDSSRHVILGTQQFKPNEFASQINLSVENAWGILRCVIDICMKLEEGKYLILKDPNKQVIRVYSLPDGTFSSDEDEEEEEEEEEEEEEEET
Data set [8] concerns MDA-MB-231. In words: Antiproliferative activity against human MDA-MB-231 cells xenografted in female BALB/c mouse model assessed as fold change in upregulation of BIP protein level at 10 mg/kg administered subcutaneously incubated for 24 hrs by Western blot analysis (reference value: 1.00%). Format: functional. The following applies: route sc.
Data set [9] concerns MDA-MB-231. In words: Antiproliferative activity against human MDA-MB-231 cells xenografted in female BALB/c mouse model assessed as fold change in inhibition of PKM2 expression at 10 mg/kg administered subcutaneously incubated for 24 hrs by Western blot analysis (reference value: 1.00%). It counts as functional. The following applies: route sc.
Data set [10] can be described thus: Toxicity in female BALB/c mouse xenografted with human BT-549 cells assessed as effect on pathological changes in spleen at 5 to 20 mg/kg, sc by H and E staining based analysis. It counts as organism-based. Particulars: in vivo, dose 5-20 mg/kg.
Data set [11] concerns BT-549. Nature of the data set: Downregulation of LDHA expression in human BT-549 cells at 1 uM incubated for 24 hrs by DAPI staining based immunofluorescence analysis. It counts as functional, cell-based.
Data set [12] deals with BT-549. In words: Antitumor activity against human BT-549 cells xenografted in female BALB/c mouse model assessed as reduction in tumor volume administered subcutaneously and measured every day. Format: functional, cell-based. Particulars: dose 5-20 mg/kg, route sc.
A short description of data set [13]: Toxicity in female BALB/c mouse assessed as change in liver administered subcutaneously measured upto 16 days. The following applies: in vivo, sc, 384 h, time < 16 day. It counts as tissue-based.
Data set [14] concerns MDA-MB-231. Nature of the data set: Inhibition of glycolysis in human MDA-MB-231 cells assessed as decrease in GLUT4 protein level at 0.5 to 2 uM incubated for 24 hrs by Western blot analysis. Format: functional, cell-based. Particulars: dose 0.5-2 µM.
For data set [15], the system named is BT-549. Nature of the data set: Inhibition of cell migration in human BT-549 cells assessed as increase in E-cadherin level by incubated for 24 hrs by Western blot analysis. It counts as functional, cell-based. Particulars: dose 0.5-2 µM.
For data set [16], the system named is BT-549. In words: Inhibition of cell migration in human BT-549 cells assessed as reduction in MMP-2 protein level at 1 uM incubated for 24 hrs by DAPI staining based immunofluorescence analysis. Format: functional.
A short description of data set [17]: Toxicity in female BALB/c mouse assessed as change in spleen administered subcutaneously measured upto 16 days. It counts as tissue-based. Particulars: in vivo, sc, 384 h, time < 16 day.
In data set [18] the test system is MDA-MB-231. Nature of the data set: Induction of apoptosis in human MDA-MB-231 cells assessed as necrotic cells at 2 uM incubated for 24 hrs by Annexin V-PI staining based flow cytometric analysis (reference value: 1.29%). It counts as functional.
Data set [19] has as its system BT-549. Nature of the data set: Antiproliferative activity against human BT-549 cells xenografted in female BALB/c mouse model assessed as fold change in inhibition of PKM2 expression at 5 mg/kg administered subcutaneously incubated for 24 hrs by Western blot analysis (reference value: 1.05%). The following applies: route sc. Format: functional.
Data set [20] in a line: Toxicity in female BALB/c mouse xenografted with human BT-549 cells assessed as effect on pathological changes in heart at 5 to 20 mg/kg, sc by H and E staining based analysis. Format: organism-based. Particulars: in vivo, dose 5-20 mg/kg.
Data set [21] deals with BT-549. Nature of the data set: Antiproliferative activity against human BT-549 cells xenografted in female BALB/c mouse model assessed as fold change in inhibition of PKM2 expression at 20 mg/kg administered subcutaneously incubated for 24 hrs by Western blot analysis (reference value: 1.05%). Format: functional. Particulars: route sc.
Data set [22] concerns MDA-MB-231. Nature of the data set: Induction of apoptosis in human MDA-MB-231 cells assessed as upregulation of cleavage of caspase-9 expression at 0.5 to 2 uM incubated for 24 hrs by Western blot analysis. Format: functional, cell-based. Particulars: dose 0.5-2 µM.

As for `CC(C)=CCC/C(C)=C/[C@H]1OC(=O)CC12C[C@H](OC(=O)Cc1ccc(NC(=O)/C=C/c3ccccc3)cc1)C=CC2=O` (some centres not stated), in [1], the IC50 at 48 h came out at 16 µM. Moreover, the Activity in [2] is 12.7%; in [4] it was 50.1%; in [5], 58.2%; in data set [10], “Non-Toxic”; in [12], “Dose-Dependent Effect”; in data set [13], “Non-Toxic”. Also, the Activity entry in data set [17] is listed as “Non-Toxic”; in data set [18], 6.53%; in data set [20], “Non-Toxic”. Moreover, the outcome in data set [3], in [7], in data set [11] and in data set [22] was Active. Further, the inhibition result in data set [6], in data set [14] and in data set [16] was “Active” in each case. Moreover, the “fold change (FC)” value in data set [8] is 2.1; in data set [9] it was 0.62; in data set [19], 0.97; in [21], 0.16. For the same molecule, the inhibition entry in [15] was “Dose-Dependent Effect”.
